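Step 1: Grow cells in 96-well plates. Step 2: Expose to compound for 48 hours at 5 concentrations. Step 3: Interpolate endpoints linearly; if unreached, use highest concentration. Abbreviation: GI50, concentration required for 50% inhibition of growth. Definition used: TGI = concentration required for complete inhibition of growth.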
How the values were obtained:
Assay in all cases: inhibition of tumour cell growth, NCI panel, 48 h
CCRF-CEM leukemia = test system: CCRF-CEM leukemia
COLO 205 colon = test system: COLO 205 colon
HL-60(TB) leukemia = test system: HL-60(TB) leukemia
MCF7 breast = test system: MCF7 breast
MOLT-4 leukemia = test system: MOLT-4 leukemia
NCI/ADR-RES ovarian = test system: NCI/ADR-RES ovarian
OVCAR-8 ovarian = test system: OVCAR-8 ovarian
SK-OV-3 ovarian = test system: SK-OV-3 ovarian
TK-10 renal = test system: TK-10 renal
U251 CNS = test system: U251 CNS

Compound	TGI (CCRF-CEM leukemia) [µM]	TGI (COLO 205 colon) [µM]	TGI (HL-60(TB) leukemia) [µM]	TGI (MCF7 breast) [µM]	TGI (MOLT-4 leukemia) [µM]	TGI (NCI/ADR-RES ovarian) [µM]	TGI (OVCAR-8 ovarian) [µM]	TGI (SK-OV-3 ovarian) [µM]	TGI (TK-10 renal) [µM]	TGI (U251 CNS) [µM]	GI50 (NCI/ADR-RES ovarian) [µM]	GI50 (COLO 205 colon) [µM]
COC(=O)C(CSSC[C@H](N/C(C)=C/C(C)=O)C(=O)OC)N/C(C)=C/C(C)=O (some centres undefined)	71.5	> 100	> 100	88.6	> 100	> 100	0.0686	> 100	39.1	> 100	–	–
COc1ccc(-n2c(=O)n(C)c(=O)n2-c2ccc(OC)cc2)cc1	> 100	> 100	> 100	> 100	> 100	> 100	> 100	> 100	> 100	> 100	–	–
COc1cc(/C=C2\Sc3scc(-c4cccc([N+](=O)[O-])c4)[n+]3C2=O)cc(OC)c1OC	90.6	15.1	82.1	13.7	11.8	> 100	> 100	59.9	22.6	26.3	–	–
CCCCCCCCCCCCCCCCCCNc1ccn(C2OC(COP(=O)(O)OCC3OC(n4cc(F)c(NCCCCCCCCCCCCCCCCCC)nc4=O)CC3O)C(O)C2O)c(=O)n1 (centres undefined)	> 100	> 100	> 100	> 100	> 100	> 100	> 100	> 100	> 100	> 100	–	–
CCOC(=O)c1cnc2oc3ccc(O)cc3c2c1-c1ccccc1	> 100	> 100	> 100	> 100	> 100	73.7	> 100	46.1	> 100	> 100	4.77	–
COC(=O)c1c(OC(C)=O)ccc2c1c1c(n2C)C(=O)c2ccccc2C1=O	–	> 100	> 100	> 100	> 100	> 100	> 100	46.2	88.1	> 100	–	–
CC1(C)CC(C)(C)C1=NNC(N)=O	> 100	> 100	> 100	> 100	> 100	> 100	> 100	> 100	> 100	> 100	–	–
O=C(Nc1nc2ccccc2s1)c1cc([N+](=O)[O-])ccc1Cl	8.77	> 100	4.41	> 22.6	9.93	> 76.4	> 45.4	> 100	> 100	> 91.6	–	–
COc1ccc(-c2c(C#N)c(S)n(NS(=O)(=O)c3ccc(C)cc3)c(=O)c2C#N)cc1	26.8	44.6	33.2	> 100	34.3	58.9	74.8	> 100	> 100	> 100	–	–
O=C(OCCN=c1c2ccccc2ccc2ccccc12)c1ccc([N+](=O)[O-])cc1	> 100	> 100	> 100	> 100	> 100	> 100	> 100	> 100	> 100	> 100	–	–
S=C1SCN(Cc2ccco2)CN1c1ccc(Br)cc1	67.4	32	45.8	31.3	47.4	77.6	93.9	73.2	65.9	57.9	–	–
N#Cc1c(-c2ccc(Cl)cc2)c2c(n(C3OC(CO)C(O)C(O)C3O)c1=S)CCC2 (centres undefined)	56.7	63.8	> 100	40.9	29	> 100	–	> 100	> 100	84.9	–	–
C/C=C(/C)C(=O)O[C@H](C[C@@H](C)[C@H]1CC(c2ccoc2)OC1=O)[C@@]1(C)C(=O)CCC2O[C@]21C (some centres undefined)	> 100	> 100	> 100	> 100	> 100	> 100	> 100	> 100	> 100	> 100	–	–
CC1=NN(c2nc(N)nc(/C(C#N)=C/c3cccn3-c3cc(Cl)cc(Cl)c3)n2)C(C)(C)C1	> 100	> 100	> 100	> 100	–	> 100	> 100	> 100	> 100	28.3	–	–
COC(=O)[C@H]1CO[C@H]2C/C(C)=C/CC/C(C)=C/CC[C@@]3(C)O[C@@H]3C[C@H]21	28.1	22.6	26.2	> 50	28.7	29	> 50	> 50	> 50	> 50	–	–
CC(=O)c1c(C(F)(F)F)n([O-])c2cc(Cl)c(Cl)cc2[n+]1=O	0.563	2.11	1.43	1.52	0.544	4.85	1.84	2.9	1.09	2.63	–	–
CCN(CC)c1ccc2cc(C(=O)Nc3cccc4ccccc34)c(=N)oc2c1	> 100	> 100	> 100	> 100	–	> 100	> 100	> 100	> 100	> 100	–	–
NCCCN(CCCN)CCN(CCN(CCCN)CCCN)CCN(CCCN)CCCN	–	> 100	> 100	> 100	–	> 100	> 100	> 100	> 100	> 100	–	–
CC1(O)CC(=O)c2c(cc3ccc(-c4c5c(c(O)c6c(O)cccc46)C(=O)CC(C)(O)C5)c(O)c3c2O)C1 (centres undefined)	10.5	0.158	0.772	1.7	8.36	6.63	3.76	> 100	10.3	1.74	–	0.0361
CC(=O)Oc1c2oc3ccc(Cl)cc3c(=O)c2c(O)c2ccsc12	> 100	> 100	> 100	> 100	–	> 100	> 100	> 100	> 100	> 100	–	–
C#CCSC(C=C=C)P(=O)(OC(C)C)OC(C)C (centres undefined)	–	> 100	> 100	> 100	65.2	> 100	> 100	> 100	> 100	> 100	–	–

Source: PubChem BioAssay (NCI)
